These compounds were tested against T1, human FSH receptor (Homo sapiens, UniProt P23945) (assay: hFSHRago (CHO luc): agonistic activity at the human FSH receptor expressed in CHO cells, CRE-luciferase reporter). Conditions: CHO cells stably transfected with human FSH receptor and CRE/luciferase reporter; 4 hours of incubation.
T1 construct: expressed in transfected cells
T1 sequence (P23945 18-695): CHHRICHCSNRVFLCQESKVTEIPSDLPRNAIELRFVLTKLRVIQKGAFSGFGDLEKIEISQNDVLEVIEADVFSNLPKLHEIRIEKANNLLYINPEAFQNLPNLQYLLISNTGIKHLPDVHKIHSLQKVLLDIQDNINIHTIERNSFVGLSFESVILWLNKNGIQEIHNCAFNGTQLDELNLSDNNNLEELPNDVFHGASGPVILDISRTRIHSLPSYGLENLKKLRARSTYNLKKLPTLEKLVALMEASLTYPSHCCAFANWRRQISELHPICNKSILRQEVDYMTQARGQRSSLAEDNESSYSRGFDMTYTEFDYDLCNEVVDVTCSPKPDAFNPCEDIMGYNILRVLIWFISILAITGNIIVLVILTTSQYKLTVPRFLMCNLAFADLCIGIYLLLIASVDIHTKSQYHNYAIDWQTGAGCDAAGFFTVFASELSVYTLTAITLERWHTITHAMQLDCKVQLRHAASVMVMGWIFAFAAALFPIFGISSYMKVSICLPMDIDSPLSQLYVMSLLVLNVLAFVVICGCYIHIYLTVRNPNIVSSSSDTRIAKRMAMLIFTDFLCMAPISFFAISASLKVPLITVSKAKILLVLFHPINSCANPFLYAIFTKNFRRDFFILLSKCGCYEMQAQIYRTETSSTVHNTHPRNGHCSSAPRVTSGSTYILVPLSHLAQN
Format: cell-based

EC50 | SMILES
1.9 nM | COc1cc2c(cc1OC(C)C)-c1c(-c3cccs3)c(Cl)c(C(=O)N3CCCN(C(C)=O)CC3)n1CC2 [Example 12b, 1-[4-(2-Chloro-9-isopropoxy-8-methoxy-1-thiophen-2-yl-5,6-dihydro-pyrrolo[2,1-α]isoquinoline-3-carbonyl)-[1,4]diazepan-1-yl]-ethanone]
1.3 nM | COc1cc2c(cc1OCCO)-c1c(-c3cccs3)cc(C(=O)N(C)C(C)(C)C)n1CC2 [Example 65d, 9-(2-Hydroxy-ethoxy)-8-methoxy-1-thiophen-2-yl-5,6-dihydro-pyrrolo[2,1-α]iso-quinoline-3-carboxylic acid tert-butyl-methyl-amide]
4.3 nM | COc1cc2c(cc1CC(C)C)-c1c(-c3cccs3)cc(C(=O)N(C)C(C)(C)C)n1CC2 [Example 58c, 9-Isobutyl-8-methoxy-1-thiophen-2-yl-5,6-dihydro-pyrrolo[2,1-α]isoquinoline-3-carboxylic acid tert-butyl-methyl-amide]
67.1 nM | COc1cc2c(cc1OC(C)C)-c1c(C#N)cc(C(=O)N(C)C(C)(C)C)n1CC2 [Example 37d, 1-Cyano-9-isopropoxy-8-methoxy-5,6-dihydro-pyrrolo[2,1-α]isoquinoline-3-carboxylic acid tert-butyl-methyl-amide]
2.7 nM | CC#Cc1cc2c(cc1OC)CCn1c(C(=O)N(C)C(C)(C)C)cc(-c3cccs3)c1-2 [Example 85b, 8-Methoxy-9-prop-1-ynyl-1-thiophen-2-yl-5,6-dihydro-pyrrolo[2,1--α]isoquinoline-3-carboxylic acid tert-butyl-methyl-amide]
99.2 nM | COc1cc2c(cc1OC)-c1c(Br)cc(C(=O)O)n1CC2 [Example 108b]
1080 nM | COc1cc2c(cc1OC)-c1c(-c3ccsc3)cc(C(=O)N(C)CC(=O)N(C)CC(C)C)n1CC2 [Example 119e, 8,9-dimethoxy-1-thiophen-3-yl-5,6-dihydro-pyrrolo[2,1-α]isoquinoline-3-carboxylic acid [(isobutyl-methyl-carbamoyl)-methyl]-methyl-amide]

Continued, compound first:

SMILES | EC50
COc1cc2c(cc1OC(C)C)-c1c(-c3cccs3)c(C=NO)c(C(=O)N(C)C(C)(C)C)n1CC2 [Example 42, 2-(Hydroxyimino-methyl)-9-isopropoxy-8-methoxy-1-thiophen-2-yl-5,6-dihydro-pyrrolo[2,1-α]isoquinoline-3-carboxylic acid tert-butyl-methyl-amide] | 1.2 nM
COc1cc2c(cc1OC(C)C)-c1c(-c3cccs3)cc(C(=O)C(C)N3CCOCC3)n1CC2 (stereo not drawn) [Example 48, 1-(9-Isopropoxy-8-methoxy-1-thiophen-2-yl-5,6-dihydro-pyrrolo[2,1-α]isoquinolin-3-yl)-2-morpholin-4-yl-propan-1-one] | 89.4 nM
COC1=CC2CCn3c(C(=O)N4CCCN(C(=O)C5CCC5)CC4)cc(-c4cccs4)c3C2C=C1Br (stereo not drawn) [Example 82, (9-Bromo-8-methoxy-1-thiophen-2-yl-5,6,6a,10a-tetrahydro-pyrrolo[2,1--α]isoquinolin-3-yl)-(4-cyclobutanecarbonyl-[1,4]diazepan-1-yl)-methanone] | 5.8 nM
COc1cc2c(cc1OC(C)C)-c1c(-c3cccs3)cc(C(=O)N3C[C@H]4C[C@@H](N(C)C(C)=O)C[C@H]4C3)n1CC2 [Example 26, N-[2-(9-Isopropoxy-8-methoxy-1-thiophen-2-yl-5,6-dihydro-pyrrolo[2,1-α]isoquinoline-3-carbonyl)-octahydro-cyclopenta[c]pyrrol-5-yl]-N-methyl-acetamide] | 173 nM
COc1cc2c(cc1OC)-c1c(-c3cccs3)cc(C(=O)N3CCC[C@H](NC(=O)C4CCC4)C3)n1CC2 [Example 105, Cyclobutanecarboxylic acid [(S)-1-(8,9-dimethoxy-1-thiophen-2-yl-5,6-dihydro-pyrrolo[2,1-α]isoquinoline-3-carbonyl)-piperidin-3-yl]-amide] | 1730 nM
COc1cc2c(cc1OC(C)C)-c1c(-c3cccs3)cc(C(=O)N3CCCN(C(=O)C4(Br)CCC4)CC3)n1CC2 [Example 8, [4-(1-Bromo-cyclobutanecarbonyl)-[1,4]diazepan-1-yl]-(9-isopropoxy-8-methoxy-1-thiophen-2-yl-5,6-dihydro-pyrrolo[2,1-α]isoquinolin-3-yl)-methanone] | 6.8 nM
COc1cc2c(cc1OC)-c1c(-c3cccs3)cc(C(=O)N3CCCN(C(=O)C4(C)CCC4)CC3)n1CC2 [Example 104, (8,9-Dimethoxy-1-thiophen-2-yl-5,6-dihydro-pyrrolo[2,1-α]isoquinolin-3-yl)-[4-(1-methyl-cyclobutanecarbonyl)-[1,4]diazepan-1-yl]-methanone] | 3 nM
COCc1c(-c2cccs2)c2n(c1C(=O)N(C)C(C)(C)C)CCc1cc(OC)c(OC(C)C)cc1-2 [Example 41, 9-Isopropoxy-8-methoxy-2-methoxymethyl-1-thiophen-2-yl-5,6-dihydro-pyrrolo[2,1-α]isoquinoline-3-carboxylic acid tert-butyl-methyl-amide] | 2.8 nM
COc1cc2c(cc1OC1CCCC1)-c1c(-c3cccs3)cc(C(=O)N3CCCN(C(C)=O)CC3)n1CC2 [Example 79, 1-[4-(9-Cyclopentyloxy-8-methoxy-1-thiophen-2-yl-5,6-dihydro-pyrrolo[2,1-α]isoquinoline-3-carbonyl)-perhydro-1,4-diazepin-1-yl]-ethanone] | 14.2 nM
COc1cc2c(cc1C(C)=O)-c1c(-c3cccs3)cc(C(=O)N3CCCC3(C)C)n1CC2 [Example 122, 1-[3-(2,2-Dimethyl-pyrrolidine-1-carbonyl)-8-methoxy-1-thiophen-2-yl-5,6-dihydro-pyrrolo[2,1-α]isoquinolin-9-yl]-ethanone] | 2 nM
COc1cc2c(cc1[N+](=O)[O-])-c1c(-c3cccs3)cc(C(=O)N(C)C(C)(C)C)n1CC2 [Example 94, 8-Methoxy-9-nitro-1-thiophen-2-yl-5,6-dihydro-pyrrolo[2,1-α]isoquinoline-3-carboxylic acid tert-butyl-methyl-amide] | 3 nM
COc1cc2c(cc1OC(C)C)-c1c(-c3cccs3)cc(C(=O)N3CC4CC(C3)CN(C(=O)C3CCC3)C4)n1CC2 [Example 22, (7-Cyclobutanecarbonyl-3,7-diaza-bicyclo[3.3.1]non-3-yl)-(9-isopropoxy-8-methoxy-1-thiophen-2-yl-5,6-dihydro-pyrrolo[2,1-α]isoquinolin-3-yl)-methanone] | 8.9 nM
COc1cc2c(c(OC)c1)-c1c(-c3ccsc3)cc(C(=O)N(C)C(C)(C)C)n1CC2 [Example 120, 8,10-Dimethoxy-1-thiophen-3-yl-5,6-dihydro-pyrrolo[2,1-α]isoquinoline-3-carboxylic acid tert-butyl-methyl-amide] | 699 nM
COC(=O)NCCOc1cc2c(cc1OC)CCn1c(C(=O)N(C)C(C)(C)C)cc(-c3cccs3)c1-2 [Example 66, {2-[3-(tert-Butyl-methyl-carbamoyl)-8-methoxy-1-thiophen-2-yl-5,6-dihydro-pyrrolo[2,1-α]isoquinolin-9-yloxy]-ethyl}-carbamic acid methyl ester] | 31.3 nM
CCOC(=O)Nc1cc2c(cc1OC)CCn1c(C(=O)N3CCCC3(C)C)cc(-c3cccs3)c1-2 [Example 99, [3-(2,2-Dimethyl-pyrrolidine-1-carbonyl)-8-methoxy-1-thiophen-2-yl-5,6-dihydro-pyrrolo[2,1-α]isoquinolin-9-yl]-carbamic acid ethyl ester] | 22 nM

From patent US8394789B2, “(Dihydro)pyrrolo[2,1-α]isoquinolines” (MSD Oss B.V., priority 2008, dated 2013)
